Where two headings read alike, the source gives them in different places. Numbered stars: 1 amine (or outer) side, 2 acyl side, 3 side chain; on linkers, the order of the positions; unused ones are H or OH. Bridge positions count the residues as written; N and C are the ends. Square brackets hold non-standard residues; d marks the D form. Peptide text beside a SMILES is read from it. I, II: the chains in the order shown. Phe(4-tBu) = CC(C)(C)c1ccc(C[C@H](N)C(=O)O)cc1; Bip = N[C@@H](Cc1ccc(-c2ccccc2)cc1)C(=O)O; Diglycolyl = O=C(COCC(=O)[*:2])[*:1]; NMeR = CN[C@@H](CCCNC(=N)N)C(=O)O; β3hE = N[C@@H](CCC(=O)O)CC(=O)O; NMeK = CN[C@@H](CCCCN)C(=O)O; Pen = CC(C)(S)[C@H](N)C(=O)O
Legend:
[1] = molecular target: T1, rh integrin α4β7 (Homo sapiens, UniProt P13612+P26010); assay: α4β7-MAdCAM Competition ELISA; assay type: binding
T1 construct: purchased R&D Systems 5397-A30
Method in brief: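 Competition read-out was A450 after anti-human IgG1-HRP and TMB detection of bound recombinant human MAdCAM-1 (10 nM final). Peptides were serially diluted 3-fold from a final 10 μM and equilibrated 1 h at room temperature on nickel-captured α4β7 (800 ng/well). The buffer was Tris pH 7.6 with 1 mM Mn2+ or Mg2+.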

[2] = molecular target: T2, α4β1 (Homo sapiens, UniProt P05556+P13612, DEL729-798); assay: α4β1-VCAM Competition ELISA; assay type: binding
T2 construct: purchased R&D Systems 5668-A4
Method in brief: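 ELISA plates were coated with VCAM-1 Fc at 400 ng/well. Peptide dilutions (highest final 100 μM) and 60 nM α4β1 were incubated 2 h at 37 °C in pH 7.6 Tris buffer containing 1 mM Mn2+ or Mg2+. Integrin retained on the plate was detected by 9F10 antibody, then HRP secondary, with TMB absorbance at 450 nm.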

[3] = Simulated Intestinal Fluid (SIF) Stability Assay; assay type: in vitro ADME, porcine; conditions: pig, simulated intestinal fluid (SIF) with 1% porcine pancreatin
Method in brief: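 Intestinal stability: percent peptide remaining over time, by LC-MS/MS peak-area ratio to internal standard, fitted to first-order decay for half-life. Conditions: 22 μM peptide, 1% pancreatin in pH 6.5 blank FASSIF, 37 °C.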

[4] = Table 3-B, Potency (α4β7), range classes, read-out: α4β7 ELISA IC50
[5] = Table 3-B, Selectivity (α4β1), range classes, read-out: α4β1 ELISA IC50
[6] = pH 6.5, Table 3-B, > means experiment was stopped at that time and half life was not reached, read-out: Stabilty SIF t1/2
[7] = Table 4-B, read-out: ELISA α4β7 IC50
[8] = Table 4-B, read-out: ELISA_α4β1 IC50
[9] = pH 6.5, Table 4-C, t1/2, > means assay stopped at that time, read-out: SIF (porcine) Min

T1 sequence (P13612 34-977 limits assumed): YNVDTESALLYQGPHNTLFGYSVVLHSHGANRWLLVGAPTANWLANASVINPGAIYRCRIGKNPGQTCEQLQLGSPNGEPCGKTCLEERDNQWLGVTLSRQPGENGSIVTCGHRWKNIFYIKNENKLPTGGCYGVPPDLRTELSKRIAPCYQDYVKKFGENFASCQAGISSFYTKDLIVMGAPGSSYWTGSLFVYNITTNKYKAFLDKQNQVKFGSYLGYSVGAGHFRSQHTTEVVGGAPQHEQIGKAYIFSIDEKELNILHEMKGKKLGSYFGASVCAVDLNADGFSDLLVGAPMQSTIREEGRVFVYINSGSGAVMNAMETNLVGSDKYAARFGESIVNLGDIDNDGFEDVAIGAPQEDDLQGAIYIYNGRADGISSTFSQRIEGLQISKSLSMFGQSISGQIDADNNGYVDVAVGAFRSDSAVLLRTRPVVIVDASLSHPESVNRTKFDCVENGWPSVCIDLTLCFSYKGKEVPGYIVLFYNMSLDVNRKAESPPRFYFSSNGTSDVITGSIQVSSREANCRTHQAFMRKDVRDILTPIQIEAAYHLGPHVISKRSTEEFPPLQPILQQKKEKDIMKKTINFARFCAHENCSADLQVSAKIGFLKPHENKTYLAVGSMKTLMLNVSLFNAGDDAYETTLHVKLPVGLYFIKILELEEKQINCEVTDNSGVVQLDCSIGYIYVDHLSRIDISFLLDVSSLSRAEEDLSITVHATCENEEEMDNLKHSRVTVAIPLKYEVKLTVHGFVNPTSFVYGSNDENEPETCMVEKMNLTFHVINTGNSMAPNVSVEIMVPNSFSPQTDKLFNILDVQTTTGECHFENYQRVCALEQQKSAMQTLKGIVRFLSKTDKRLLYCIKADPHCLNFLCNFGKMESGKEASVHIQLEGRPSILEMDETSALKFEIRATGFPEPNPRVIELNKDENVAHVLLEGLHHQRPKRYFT
T1 sequence (P26010 20-723 limits assumed): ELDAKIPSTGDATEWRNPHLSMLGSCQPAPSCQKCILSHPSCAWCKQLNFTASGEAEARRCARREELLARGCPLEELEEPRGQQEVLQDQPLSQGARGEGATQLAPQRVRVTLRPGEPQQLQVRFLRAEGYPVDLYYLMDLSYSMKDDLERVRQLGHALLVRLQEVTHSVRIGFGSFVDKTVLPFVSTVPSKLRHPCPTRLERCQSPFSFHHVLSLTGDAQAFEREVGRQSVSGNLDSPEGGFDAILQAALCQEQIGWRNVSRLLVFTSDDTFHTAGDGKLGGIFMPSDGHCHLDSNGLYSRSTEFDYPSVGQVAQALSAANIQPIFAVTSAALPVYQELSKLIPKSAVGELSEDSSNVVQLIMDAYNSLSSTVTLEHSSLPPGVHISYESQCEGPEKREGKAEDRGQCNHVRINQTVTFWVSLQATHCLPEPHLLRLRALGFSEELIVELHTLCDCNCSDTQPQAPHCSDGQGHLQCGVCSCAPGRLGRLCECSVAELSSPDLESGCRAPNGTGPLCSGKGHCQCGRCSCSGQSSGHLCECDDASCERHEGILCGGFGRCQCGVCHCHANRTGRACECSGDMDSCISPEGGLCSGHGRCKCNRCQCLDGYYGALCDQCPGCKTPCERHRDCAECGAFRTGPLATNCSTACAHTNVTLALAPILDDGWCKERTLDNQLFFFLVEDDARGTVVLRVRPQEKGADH
T2 sequence (P13612 34-977 limits assumed, stated change not applied): as the sequence (P13612 34-977 limits assumed) above
T2 sequence (P05556 21-728 limits assumed, stated change not applied): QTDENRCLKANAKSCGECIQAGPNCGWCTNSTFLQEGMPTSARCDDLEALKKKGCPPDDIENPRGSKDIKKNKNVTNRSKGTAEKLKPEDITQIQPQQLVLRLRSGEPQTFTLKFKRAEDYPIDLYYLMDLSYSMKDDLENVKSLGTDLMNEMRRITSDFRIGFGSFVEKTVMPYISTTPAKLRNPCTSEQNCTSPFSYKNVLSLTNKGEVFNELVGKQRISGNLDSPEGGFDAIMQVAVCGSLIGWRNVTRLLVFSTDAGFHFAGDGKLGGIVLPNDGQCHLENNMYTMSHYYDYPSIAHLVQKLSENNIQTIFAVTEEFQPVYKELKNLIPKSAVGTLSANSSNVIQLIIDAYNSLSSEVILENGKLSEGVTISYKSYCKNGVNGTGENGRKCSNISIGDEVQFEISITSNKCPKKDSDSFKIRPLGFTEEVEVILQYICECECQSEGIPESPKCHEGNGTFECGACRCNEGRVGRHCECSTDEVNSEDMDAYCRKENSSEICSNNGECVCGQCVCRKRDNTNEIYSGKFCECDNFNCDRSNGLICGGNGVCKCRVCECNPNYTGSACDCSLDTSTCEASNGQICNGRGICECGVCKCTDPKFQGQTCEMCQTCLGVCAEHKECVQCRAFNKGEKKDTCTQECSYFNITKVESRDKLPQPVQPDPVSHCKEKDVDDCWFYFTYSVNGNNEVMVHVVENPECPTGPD

| SMILES | IC50 [1, 4] | IC50 [2, 5] | half-life at 22 μM [3, 6] | half-life at 22 μM ([3]; pH 6.5, Table 3-B, alone or in parentheses after >360, read-out: Stabilty SIF t1/2, in hr (converted)) | IC50 [1, 7] | IC50 [2, 8] | half-life at 22 μM [3, 9] |
| --- | --- | --- | --- | --- | --- | --- | --- |
| CC(=O)N[C@@H]1C(=O)N(C)[C@@H](CCCNC(=N)N)C(=O)N[C@@H](CO)C(=O)N[C@@H](CC(=O)O)C(=O)N[C@@H]([C@@H](C)O)C(=O)N[C@@H](CC(C)C)C(=O)N[C@H](C(=O)N[C@@H](Cc2ccc(-c3ccccc3)cc2)C(=O)N[C@@H](CCC(=O)O)CC(=O)N(C)[C@@H](CCCCNC(=O)COCC(=O)NCCCC[C@@H](C(N)=O)N(C)C(=O)C[C@H](CCC(=O)O)NC(=O)[C@H](Cc2ccc(-c3ccccc3)cc2)NC(=O)[C@H]2NC(=O)[C@H](CC(C)C)NC(=O)[C@H]([C@@H](C)O)NC(=O)[C@H](CC(=O)O)NC(=O)[C@H](CO)NC(=O)[C@H](CCCNC(=N)N)N(C)C(=O)[C@@H](NC(C)=O)C(C)(C)SSC2(C)C)C(N)=O)C(C)(C)SSC1(C)C [compound 150] (I: Ac-[Pen][NMeR]SDTL[Pen][Bip][β3hE][NMeK]-NH2 / II: Ac-[Pen][NMeR]SDTL[Pen][Bip][β3hE][NMeK]-NH2; disulfide I:1-I:7, II:1-II:7; linker I:10-II:10 via Diglycolyl) | < 10 nM | 1000 to 10000 nM | > 5 h | – | – | – | – |
| CC(=O)N[C@@H]1C(=O)N(C)[C@@H](CCCNC(=N)N)C(=O)N[C@@H](CO)C(=O)N[C@@H](CC(=O)O)C(=O)N[C@@H]([C@@H](C)O)C(=O)N[C@@H](CC(C)C)C(=O)N[C@H](C(=O)N[C@@H](Cc2ccc(C(C)(C)C)cc2)C(=O)N[C@@H](CCC(=O)O)CC(=O)O)C(C)(C)SSC1(C)C [compound 152] (Ac-[Pen][NMeR]SDTL[Pen][Phe(4-tBu)][β3hE]-OH; disulfide 1-7) | < 10 nM | 100 to 500 nM | 2.45 h | – | – | – | – |
| CC(=O)N[C@@H]1C(=O)N(C)[C@@H](CCCNC(=N)N)C(=O)N[C@@H](CO)C(=O)N[C@@H](CC(=O)O)C(=O)N[C@@H]([C@@H](C)O)C(=O)N[C@@H](CC(C)C)C(=O)N[C@H](C(=O)N[C@@H](Cc2ccc(C(C)(C)C)cc2)C(=O)N[C@@H](CCC(=O)O)CC(=O)N[C@H](CCCCN)C(N)=O)C(C)(C)SSC1(C)C [compound 153] (Ac-[Pen][NMeR]SDTL[Pen][Phe(4-tBu)][β3hE][dK]-NH2; disulfide 1-7) | 10 to 25 nM | 1000 to 10000 nM | – | 13.6 h | – | – | – |
| CC(=O)N[C@H]1CSSC[C@@H](C(=O)NCC(=O)N[C@@H](CCC(=O)O)C(N)=O)NC(=O)[C@H](CC(C)C)NC(=O)[C@H]([C@@H](C)O)NC(=O)[C@H](CC(=O)O)NC(=O)[C@H](CO)NC(=O)[C@H](CCCNC(=N)N)NC1=O [compound 194, Ac-C-R-S-D-T-L-C-G-E-NH2] (Ac-CRSDTLCGE-NH2; disulfide 1-7) | – | – | – | – | 97 nM | 2020 nM | < 0.0167 h |
| CC(=O)N[C@H]1CSSC[C@@H](C(N)=O)NC(=O)[C@H](CC(C)C)NC(=O)[C@H]([C@@H](C)O)NC(=O)[C@H](CC(=O)O)NC(=O)[C@H](CO)NC(=O)[C@H](CCCNC(=N)N)NC1=O [compound 195, Ac-C-R-S-D-T-L-C-NH2] (Ac-CRSDTLC-NH2; disulfide 1-7) | – | – | – | – | 97 nM | 2880 nM | < 0.0167 h |
| CC(=O)N[C@H]1CSSC[C@@H](C(=O)NCC(=O)N[C@@H](CCC(=O)O)C(=O)N[C@@H](CCCCN)C(N)=O)NC(=O)[C@H](CC(C)C)NC(=O)[C@H]([C@@H](C)O)NC(=O)[C@H](CC(=O)O)NC(=O)[C@H](CO)NC(=O)[C@H](CCCNC(=N)N)NC1=O [compound 196, Ac-C-R-S-D-T-L-C-G-E-K-NH2] (Ac-CRSDTLCGEK-NH2; disulfide 1-7) | – | – | – | – | 87 nM | 4810 nM | < 0.0667 h |
| CC(=O)N[C@H]1CSSC[C@@H](C(=O)NCC(=O)N[C@@H](CCC(=O)O)C(=O)N[C@@H](CCCCN)C(=O)O)NC(=O)[C@H](CC(C)C)NC(=O)[C@H]([C@@H](C)O)NC(=O)[C@H](CC(=O)O)NC(=O)[C@H](CO)NC(=O)[C@H](CCCNC(=N)N)N(C)C1=O [compound 199, Ac-C-N-Me-R-S-D-T-L-C-G-E-K-OH] (Ac-C[NMeR]SDTLCGEK-OH; disulfide 1-7) | – | – | – | – | 58 nM | > 100000 nM | 0.45 h |
| CC(=O)N[C@H]1CSSC[C@@H](C(=O)NCC(=O)N[C@@H](CCC(=O)O)C(=O)N[C@@H](CCCCNC(=O)COCC(=O)NCCCC[C@H](NC(=O)[C@H](CCC(=O)O)NC(=O)CNC(=O)[C@@H]2CSSC[C@H](NC(C)=O)C(=O)N(C)[C@@H](CCCNC(=N)N)C(=O)N[C@@H](CO)C(=O)N[C@@H](CC(=O)O)C(=O)N[C@@H]([C@@H](C)O)C(=O)N[C@@H](CC(C)C)C(=O)N2)C(=O)O)C(=O)O)NC(=O)[C@H](CC(C)C)NC(=O)[C@H]([C@@H](C)O)NC(=O)[C@H](CC(=O)O)NC(=O)[C@H](CO)NC(=O)[C@H](CCCNC(=N)N)N(C)C1=O [compound 201, (Ac-C-N-Me-R-S-D-T-L-C-G-E-K-OH)2-DIG] (I: Ac-C[NMeR]SDTLCGEK-OH / II: Ac-C[NMeR]SDTLCGEK-OH; disulfide I:1-I:7, II:1-II:7 (inferred); linker I:10-II:10 via Diglycolyl (inferred)) | – | – | – | – | 1 nM | 1240 nM | 0.3 h |
| CC(=O)N[C@H]1CSSC(C)(C)[C@@H](C(=O)N[C@H](CCCCN)C(N)=O)NC(=O)[C@H](CC(C)C)NC(=O)[C@H]([C@@H](C)O)NC(=O)[C@H](CC(=O)O)NC(=O)[C@H](CO)NC(=O)[C@H](CCCNC(=N)N)N(C)C1=O [compound 202, Ac-C-N-Me-R-S-D-T-L-Pen-k-NH2] (Ac-C[NMeR]SDTL[Pen][dK]-NH2; disulfide 1-7) | – | – | – | – | 87 nM | 1620 nM | > 6 h |
| CC(=O)N[C@H]1CSSC(C)(C)[C@@H](C(=O)N[C@@H](Cc2c[nH]c3ccccc23)C(=O)N[C@H](CCCCNC(=O)COCC(=O)NCCCC[C@@H](NC(=O)[C@H](Cc2c[nH]c3ccccc23)NC(=O)[C@H]2NC(=O)[C@H](CC(C)C)NC(=O)[C@H]([C@@H](C)O)NC(=O)[C@H](CC(=O)O)NC(=O)[C@H](CO)NC(=O)[C@H](CCCNC(=N)N)N(C)C(=O)[C@@H](NC(C)=O)CSSC2(C)C)C(N)=O)C(N)=O)NC(=O)[C@H](CC(C)C)NC(=O)[C@H]([C@@H](C)O)NC(=O)[C@H](CC(=O)O)NC(=O)[C@H](CO)NC(=O)[C@H](CCCNC(=N)N)N(C)C1=O [compound 204, (Ac-C-N-Me-R-S-D-T-L-Pen-W-k-NH2)2-DIG] (I: Ac-C[NMeR]SDTL[Pen]W[dK]-NH2 / II: Ac-C[NMeR]SDTL[Pen]W[dK]-NH2; disulfide I:1-I:7, II:1-II:7 (inferred); linker I:9-II:9 via Diglycolyl (inferred)) | – | – | – | – | 2 nM | 463 nM | > 6 h |
| CC(=O)N[C@H]1CSSC(C)(C)[C@@H](C(=O)N[C@@H](CCC(=O)O)C(=O)N[C@H](CCCCNC(=O)COCC(=O)NCCCC[C@@H](NC(=O)[C@H](CCC(=O)O)NC(=O)[C@H]2NC(=O)[C@H](CC(C)C)NC(=O)[C@H]([C@@H](C)O)NC(=O)[C@H](CC(=O)O)NC(=O)[C@H](CO)NC(=O)[C@H](CCCNC(=N)N)N(C)C(=O)[C@@H](NC(C)=O)CSSC2(C)C)C(N)=O)C(N)=O)NC(=O)[C@H](CC(C)C)NC(=O)[C@H]([C@@H](C)O)NC(=O)[C@H](CC(=O)O)NC(=O)[C@H](CO)NC(=O)[C@H](CCCNC(=N)N)N(C)C1=O [compound 205, (Ac-C-N-Me-R-S-D-T-L-Pen-E-k-NH2)2-DIG] (I: Ac-C[NMeR]SDTL[Pen]E[dK]-NH2 / II: Ac-C[NMeR]SDTL[Pen]E[dK]-NH2; disulfide I:1-I:7, II:1-II:7 (inferred); linker I:9-II:9 via Diglycolyl (inferred)) | – | – | – | – | 2.4 nM | 444 nM | > 6 h |
| CC(=O)N[C@@H]1C(=O)N(C)[C@@H](CCCNC(=N)N)C(=O)N[C@@H](CO)C(=O)N[C@@H](CC(=O)O)C(=O)N[C@@H]([C@@H](C)O)C(=O)N[C@@H](CC(C)C)C(=O)N[C@H](C(=O)N[C@@H](Cc2c[nH]c3ccccc23)C(=O)N[C@H](CCCCNC(=O)COCC(=O)NCCCC[C@@H](NC(=O)[C@H](Cc2c[nH]c3ccccc23)NC(=O)[C@H]2NC(=O)[C@H](CC(C)C)NC(=O)[C@H]([C@@H](C)O)NC(=O)[C@H](CC(=O)O)NC(=O)[C@H](CO)NC(=O)[C@H](CCCNC(=N)N)N(C)C(=O)[C@@H](NC(C)=O)C(C)(C)SSC2(C)C)C(N)=O)C(N)=O)C(C)(C)SSC1(C)C [compound 209, (Ac-Pen-N-Me-R-S-D-T-L-Pen-W-k-NH2)2-DIG] (I: Ac-[Pen][NMeR]SDTL[Pen]W[dK]-NH2 / II: Ac-[Pen][NMeR]SDTL[Pen]W[dK]-NH2; disulfide I:1-I:7, II:1-II:7 (inferred); linker I:9-II:9 via Diglycolyl (inferred)) | – | – | – | – | 2.3 nM | 368 nM | > 3 h |
